Patent US6451736B1, “Substituted aromatic thiocarboxylic acid amides and their use as herbicides” (Bayer Aktiengesellschaft, priority 1994, dated 2002)

How the values were obtained:
Assay type in all cases: in vivo
Abuthilon [1] = assay: Post-emergence test/greenhouse; settings: Table C, after three weeks
Protocol: (§1) To produce a suitable preparation of active compound, 1 part by weight of active compound is mixed with the stated amount of solvent, the stated amount of emulsifier is added and the concentrate is diluted with water to the desired concentration.
(§2) Test plants which have a height of 5-15 cm are sprayed with the preparation of active compound in such a way as to apply the particular amounts of active compound desired per unit area. After three weeks, the degree of damage to the plants is rated in % damage in comparison to the development of the untreated control.
(§3) 0%=no action (like intreated control)

Amaranthus [2] = assay: Post-emergence test/greenhouse; settings: Table C, after three weeks
Protocol: as §1, §2, §3

Maize [3] = assay: Post-emergence test/greenhouse; settings: Table C, after three weeks
Protocol: as §1, §2, §3

Solanum [4] = assay: Post-emergence test/greenhouse; settings: Table C, after three weeks
Protocol: as §1, §2, §3

Veronica = assay: Post-emergence test/greenhouse; settings: Table C, after three weeks
Protocol: as §1, §2, §3

Wheat [5] = assay: Post-emergence test/greenhouse; settings: Table C, after three weeks
Protocol: as §1, §2, §3

Chenopodium [6] = assay: Post-emergence test/greenhouse; settings: Table C, after three weeks
Protocol: as §1, §2, §3

Portulaca = assay: Pre-emergence test/greenhouse; settings: Table B, after three weeks
Protocol: as §1
(§4) Seeds of the test plants are sown in normal soil and, after 24 hours, watered with the preparation of active compound. It is expedient to keep constant the amount of water per unit area. The concentration of the active compound in the preparation is of no importance, only the amount of active compound applied per unit area being decisive. After three weeks, the degree of damage to the plants is rated in % damage in comparison to the development of the untreated control. The figures denote:
(§5) 0%=no action (like untreated control)

Abuthilon [7] = assay: Pre-emergence test/greenhouse; settings: Table B, after three weeks
Protocol: as §1, §4, §5

Amaranthus [8] = assay: Pre-emergence test/greenhouse; settings: Table B, after three weeks
Protocol: as §1, §4, §5

Maize [9] = assay: Pre-emergence test/greenhouse; settings: Table B, after three weeks
Protocol: as §1, §4, §5

Solanum [10] = assay: Pre-emergence test/greenhouse; settings: Table B, after three weeks
Protocol: as §1, §4, §5

Wheat [11] = assay: Pre-emergence test/greenhouse; settings: Table B, after three weeks
Protocol: as §1, §4, §5

Chenopodium [12] = assay: Pre-emergence test/greenhouse; settings: Table B, after three weeks
Protocol: as §1, §4, §5

Matricaria = assay: Pre-emergence test/greenhouse; settings: Table B, after three weeks
Protocol: as §1, §4, §5

Row | SMILES | degree of damage, Abuthilon (Abuthilon [1]; 8 g/ha) | degree of damage, Amaranthus (Amaranthus [2]; 8 g/ha) | degree of damage, Maize (Maize [3]; 8 g/ha) | degree of damage, Solanum (Solanum [4]; 8 g/ha) | degree of damage, Veronica (Veronica; 8 g/ha) | degree of damage, Wheat (Wheat [5]; 8 g/ha) | degree of damage, Chenopodium (Chenopodium [6]; 8 g/ha) | degree of damage, Portulaca (Portulaca; 60 g/ha) | degree of damage, Abuthilon (Abuthilon [7]; 60 g/ha) | degree of damage, Amaranthus (Amaranthus [8]; 60 g/ha) | degree of damage, Maize (Maize [9]; 60 g/ha) | degree of damage, Solanum (Solanum [10]; 60 g/ha) | degree of damage, Wheat (Wheat [11]; 60 g/ha) | degree of damage, Chenopodium (Chenopodium [12]; 60 g/ha) | degree of damage, Matricaria (Matricaria; 60 g/ha) | other results
1 | CCS(=O)(=O)Nc1cc(-n2nc(C(F)(F)F)n(C)c2=S)c(F)cc1C(N)=S [Example 31] | 100% | 100% | 70% | 100% | 100% | 0% | 90% | 100% | 100% | 100% | 0% | 100% | 0% | 100% | 100% | –
2 | Cn1c(C(F)(F)F)nn(-c2cc(NS(C)(=O)=O)c(C(N)=S)cc2F)c1=S [Example 34] | – | – | – | – | – | – | – | 100% | 100% | 100% | 0% | 100% | 0% | 100% | 100% | degree of damage, Abuthilon (Abuthilon [1]; 15 g/ha): 100%; degree of damage, Amaranthus (Amaranthus [2]; 15 g/ha): 100%; degree of damage, Maize (Maize [3]; 15 g/ha): 30%; degree of damage, Solanum (Solanum [4]; 15 g/ha): 100%; degree of damage, Veronica (Veronica; 15 g/ha): 100%; degree of damage, Wheat (Wheat [5]; 15 g/ha): 0%; degree of damage, Chenopodium (Chenopodium [6]; 15 g/ha): 100%
3 | CC(C)Oc1cc(N2C(=O)C3CCCCN3C2=O)c(F)cc1C(N)=S (stereo not drawn) [Example 46] | 100% | 100% | 20% | 100% | 100% | 15% | 95% | 100% | 100% | 100% | 70% | 100% | 0% | 100% | 100% | –
4 | CCOc1cc(N2C(=O)C3CCCCN3C2=O)c(F)cc1C(N)=S (stereo not drawn) [Example 47] | 100% | 100% | 10% | 100% | 100% | 10% | 95% | – | – | – | – | – | – | – | – | degree of damage, Portulaca (Portulaca; 30 g/ha): 100%; degree of damage, Abuthilon (Abuthilon [7]; 30 g/ha): 100%; degree of damage, Amaranthus (Amaranthus [8]; 30 g/ha): 95%; degree of damage, Maize (Maize [9]; 30 g/ha): 0%; degree of damage, Solanum (Solanum [10]; 30 g/ha): 100%; degree of damage, Wheat (Wheat [11]; 30 g/ha): 0%; degree of damage, Chenopodium (Chenopodium [12]; 30 g/ha): 100%; degree of damage, Matricaria (Matricaria; 30 g/ha): 100%
